Data set [1] has as its system MAO. In words: Test of compounds as potential MAO substrates, Amplex Red/horseradish peroxidase coupled method. The format is biochemical, human. The following applies: up to a 50 μM concentration. How it is done: Before evaluating the potential MAO inhibitory capability of derivatives 2–7, kinetic experiments were performed to assay their behaviors as potential MAO substrates by using the Amplex Red/horseradish peroxidase coupled method, which detects the hydrogen peroxide produced by the amine oxidase enzyme activity in the presence of an amine substrate. […] Thus, for the subsequent inhibition studies, an assay method that used kynuramine as the MAO substrate and detected the production of 4-hydroxyquinoline (formed from the aldehyde reaction product) was applied.
Except for compound 4, no significant interference of the other polyamine analogs with the preliminary calibration curves was observed. […] The evaluations of the effects of compounds 1–7 on the MAO activity were performed by using a kynuramine assay due to the interferences of compound 4 with the Amplex Red method.

Data set [2] concerns LN-229 glioblastoma cell line. The experiment in a line: Inhibition growth assay, Trypan blue exclusion. The format is cell-based, human. As to conditions: Homo sapiens, LN-229, 48 h, LN-229, 48 h of incubation; mean ± SD of five independent experiments in duplicate. From the text: On this basis, we investigated the antiproliferative effect of compounds 1–7 on LN-229, a human glioblastoma cell line. Compound 1 and the well-known antitumor drug doxorubicin were taken as references. […] The data in Table 3 support the lack of cytotoxicity of compound 1.
The LN-229 (human glioblastoma) was purchased from the American Type Culture Collection (ATCC) and cultured in DMEM (D2902, Sigma Chemical Co., St. Louis, MO, USA) supplemented with 3.5 g/L of glucose and 5% heat-inactivated fetal calf serum (FCS) (F7524, Sigma Chemical Co.), respectively. A total of 100 U/mL of penicillin, 100 μg/mL of streptomycin, and 0.25 μg/mL of amphotericin B (Sigma Chemical Co.) were added to the medium. Cells were cultured at 37 °C in a humidified atmosphere incubator containing 5% carbon dioxide in air.
Cells (3–6 × 10^4/well) were seeded into a 24-well cell culture plate; after 24 h, different concentrations of the test compounds or reference drug were added. After 48 h of incubation in standard conditions, the cell viability was determined by using a Trypan blue exclusion assay. Briefly, cells were detached by using a […] and 0.3 mM EDTA solution in PBS and stained with 0.1% Trypan blue solution in PBS. Unstained viable cells were immediately counted in a Burker chamber. The percentage of viable cells was calculated with respect to the untreated control culture. […] The goodness of the fit was expressed by the r^2 coefficient, and the best fit report included the analysis of variance corrected for the mean of the observations with the p values (p < 0.005 for all the tested compounds). Data are the means ± SD of at least five independent experiments in duplicate.

Data set [3] concerns the target T1, murine SMOX (Mus musculus, UniProt Q99K82). Further details: made in house; host or cells: E. coli BL21 DE3. The following applies: previous studies ref 35, 40; cited from earlier work.
In data set [4] the target is T2, human VAP-1 (Homo sapiens, UniProt Q16853).
T2 sequence (Q16853 1-763): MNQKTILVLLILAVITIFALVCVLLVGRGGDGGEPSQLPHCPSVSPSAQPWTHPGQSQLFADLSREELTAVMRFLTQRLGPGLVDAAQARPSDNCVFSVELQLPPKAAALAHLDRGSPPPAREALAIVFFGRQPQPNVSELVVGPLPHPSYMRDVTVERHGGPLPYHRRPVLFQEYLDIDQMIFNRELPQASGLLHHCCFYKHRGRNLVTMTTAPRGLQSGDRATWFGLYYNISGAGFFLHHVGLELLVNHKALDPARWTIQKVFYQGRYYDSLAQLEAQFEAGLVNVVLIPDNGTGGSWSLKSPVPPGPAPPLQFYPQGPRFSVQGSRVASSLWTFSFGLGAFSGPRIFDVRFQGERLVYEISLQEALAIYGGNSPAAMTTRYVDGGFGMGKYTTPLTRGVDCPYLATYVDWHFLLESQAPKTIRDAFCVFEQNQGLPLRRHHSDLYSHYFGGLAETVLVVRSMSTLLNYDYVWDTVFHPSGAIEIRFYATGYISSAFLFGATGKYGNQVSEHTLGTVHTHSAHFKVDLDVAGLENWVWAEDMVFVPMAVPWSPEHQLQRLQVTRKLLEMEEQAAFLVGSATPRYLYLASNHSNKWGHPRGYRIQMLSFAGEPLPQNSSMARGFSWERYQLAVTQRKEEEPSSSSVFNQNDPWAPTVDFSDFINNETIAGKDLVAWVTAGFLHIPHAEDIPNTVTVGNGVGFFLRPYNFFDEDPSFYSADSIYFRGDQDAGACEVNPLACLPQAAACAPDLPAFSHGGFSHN
Set-up: Biothie Therapies Cor; (Turku, Finland), gift; method as in PMID 21858471, PMID 30829081. The following applies: previous studies ref 35, 40; cited from earlier work.

The target of data set [5] is T3, human recombinant MAO A (Homo sapiens, UniProt P21397).
T3 sequence (P21397 1-527): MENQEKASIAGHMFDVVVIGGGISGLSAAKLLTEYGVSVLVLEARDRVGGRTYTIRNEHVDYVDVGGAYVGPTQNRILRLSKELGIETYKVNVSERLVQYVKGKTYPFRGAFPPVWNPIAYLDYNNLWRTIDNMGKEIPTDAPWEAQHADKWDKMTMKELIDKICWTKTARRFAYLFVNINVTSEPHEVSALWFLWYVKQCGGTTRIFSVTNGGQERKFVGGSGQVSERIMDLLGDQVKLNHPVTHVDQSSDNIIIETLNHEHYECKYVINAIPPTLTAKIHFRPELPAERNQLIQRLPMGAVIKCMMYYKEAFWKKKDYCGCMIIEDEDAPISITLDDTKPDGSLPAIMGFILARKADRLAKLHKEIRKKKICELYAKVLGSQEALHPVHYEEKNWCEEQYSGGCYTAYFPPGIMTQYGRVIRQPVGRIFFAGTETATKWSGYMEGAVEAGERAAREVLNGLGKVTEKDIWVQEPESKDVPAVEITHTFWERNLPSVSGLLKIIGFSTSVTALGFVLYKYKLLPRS
In words: MAO A inhibition, kynuramine assay (4-hydroxyquinoline fluorescence). The following applies: MAO A Ki, human recombinant MAO A; kynuramine 10 μM; from slope of Vo/VI vs compound concentration (1.25–40 μM); mean ± S.D.

For data set [6], the target named is T4, human recombinant MAO B (Homo sapiens, UniProt P27338).
T4 sequence (P27338 1-520): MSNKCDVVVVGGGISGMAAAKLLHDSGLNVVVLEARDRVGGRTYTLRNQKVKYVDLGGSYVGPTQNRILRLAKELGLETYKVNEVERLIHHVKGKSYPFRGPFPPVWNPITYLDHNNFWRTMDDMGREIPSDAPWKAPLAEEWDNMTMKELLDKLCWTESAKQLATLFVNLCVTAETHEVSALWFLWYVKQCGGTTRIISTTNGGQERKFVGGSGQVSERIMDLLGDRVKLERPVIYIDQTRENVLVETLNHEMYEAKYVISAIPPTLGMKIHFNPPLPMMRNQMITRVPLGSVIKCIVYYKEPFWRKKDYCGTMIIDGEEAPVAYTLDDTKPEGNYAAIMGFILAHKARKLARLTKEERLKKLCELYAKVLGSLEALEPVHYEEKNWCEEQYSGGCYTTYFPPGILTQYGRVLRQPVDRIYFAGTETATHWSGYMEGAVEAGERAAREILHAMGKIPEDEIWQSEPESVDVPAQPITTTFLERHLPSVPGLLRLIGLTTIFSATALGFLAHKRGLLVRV
Set-up: purchased Merk s.r.l; (Italy); host or cells: baculovirus-infected BT1 cells; method as in PMID 21858471. The following applies: previous study ref 35; cited from earlier work.

The target of data set [7] is T4, human recombinant MAO B. In words: MAO B inhibition, kynuramine assay (4-hydroxyquinoline fluorescence). As to conditions: MAO B Ki, human recombinant MAO B; kynuramine 10 μM; from slope of Vo/VI vs compound concentration (1.25–40 μM); mean ± S.D.
Data set [8] has as its target T2, human VAP-1. In words: VAP-1 amine oxidase activity, Amplex Red/horseradish peroxidase assay, benzylamine as substrate. As to conditions: up to a 50 μM concentration.
The target of data set [9] is T1, murine SMOX. In words: SMOX amine oxidase activity, Amplex Red/horseradish peroxidase assay, spermine as substrate. The following applies: up to a 50 μM concentration.
Substrate in data set [10]: NCCC(=O)c1ccccc1N
In words: purified protein, by the assay type. As to conditions: other: substrate, human recombinant MAO A; pH 7.4; 37.0 °C.

The GI50 is the concentration that inhibits growth by half. In general, Ki refers to the equilibrium dissociation constant of an inhibitor or competing ligand from its target. What is called Km is the substrate concentration at which the rate is half of its maximum.

Entries after “also recorded” stand apart in the source; their conditions may differ.

T1 sequence (Q99K82 whole entry): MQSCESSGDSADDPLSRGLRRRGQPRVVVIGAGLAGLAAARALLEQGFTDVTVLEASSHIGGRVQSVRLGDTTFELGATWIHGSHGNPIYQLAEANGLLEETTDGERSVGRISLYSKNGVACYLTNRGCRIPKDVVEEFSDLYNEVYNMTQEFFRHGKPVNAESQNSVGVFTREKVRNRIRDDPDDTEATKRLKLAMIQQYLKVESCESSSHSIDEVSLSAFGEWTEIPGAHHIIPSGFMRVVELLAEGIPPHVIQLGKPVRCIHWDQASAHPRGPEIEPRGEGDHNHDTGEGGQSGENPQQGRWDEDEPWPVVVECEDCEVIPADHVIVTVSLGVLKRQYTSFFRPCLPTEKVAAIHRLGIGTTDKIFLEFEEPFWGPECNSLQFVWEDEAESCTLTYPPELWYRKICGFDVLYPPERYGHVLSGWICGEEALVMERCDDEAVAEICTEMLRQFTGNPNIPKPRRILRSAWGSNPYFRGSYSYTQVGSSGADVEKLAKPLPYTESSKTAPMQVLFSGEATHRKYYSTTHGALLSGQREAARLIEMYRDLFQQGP

Consider `COc1ccccc1CNCCCCCCN1CCC(CCC2CCN(CCCCCCNCc3ccccc3OC)CC2)CC1` [Compound 2], for which the “Behaviour as MAO substrate” value in data set [1] is reported as “did not act as substrates”. In addition, growth in data set [2] was halved (GI50) at 4.6 ± 1.1 µM. Also, the “Inhibition of SMOX” value in [3] is recorded as “poor inhibitor”. Further, the “Inhibition of VAP-1” value in [4] is on record as “poor inhibitor”. Besides, the Ki in data set [5] was found to be 247 ± 42 µM; in [7] it was 330 ± 30 µM. Also, the “Mode of inhibition of MAO B” value in data set [6] is reported as “mainly competitive/mixed; also recorded: reversible mixed-type”.

Take `COc1ccccc1CNCCCCCC(=O)N1CCC(CCC2CCN(C(=O)CCCCCNCc3ccccc3OC)CC2)CC1` [Compound 3]: the “Behaviour as MAO substrate” value in [1] is “did not act as substrates”. This molecule came in with a GI50 in data set [2] of 2.2 ± 0.9 µM. Also, in data set [8], the “Behaviour as VAP-1 substrate” value is “not substrates”. The Ki in data set [5] was 70 ± 7 µM; in data set [7], 19 ± 2 µM. The “Behaviour as SMOX substrate” value in data set [9] is given as “not substrates”.

B1: human recombinant MAO A (Homo sapiens) (protein)
chain: T3 sequence (P21397 1-527)
Turning to B1, in data set [10], the Km is 32 ± 11 µM.
